EC50 and IC50 data for 20 compounds are collected here from patent US8415351B2 (priority 2007, dated 2013).

In assay [1] the test system is genotype 1a-H77 subgenomic replicon cell line. Put plainly: microbe, parasite or virus in culture. It counts as cell-based, HCV. As to conditions: Hepatitis C virus, read-out: EC50 1a.
Assay [2] relates to genotype 1b-Con1 subgenomic replicon cell line. Put plainly: microbe, parasite or virus in culture. It is filed as cell-based, HCV. As to conditions: Hepatitis C virus, read-out: EC50 1b.
Assay [3] addresses T1, HCV polymerase 1A (Δ21 NS5B, H77) (Hepatitis C virus genotype 1a, UniProt P27958).
T1 construct: 20 to 50 nM Δ21 NS5B
Kind of assay: biochemical. As to conditions: IC50 1a. Put shortly: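 Radiometric assay with Δ21 NS5B (H77): 20 μM CTP, 20 μM ATP, 1 μM ^3H-UTP, 5 nM template RNA, 2–4 h at room temperature. RNA precipitated with spermine, filter-captured and counted. IC50 from non-linear fit of retained cpm vs inhibitor concentration (tight-binding equation).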

Assay [4] has as its target T2, HCV polymerase 1B (Δ21 NS5B, BK) (Hepatitis C virus genotype 1b, UniProt P26663).
T2 construct: 20 to 50 nM Δ21 NS5B
Kind of assay: biochemical. An outline of the steps: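 Δ21 NS5B (genotype 1b, BK […]) preincubated 15 min RT with inhibitor, 2 mM MnCl2, pH 7.4, 60–125 μM GTP; started with 20 μM CTP/ATP, 1 μM 3H-UTP, 5 nM template RNA, run 2–4 h RT. Spermine-precipitated RNA filter-captured, scintillation counted; IC50 from tight-binding (Morrison) fit.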

T1 sequence (P27958 2421-2990, stated change not applied): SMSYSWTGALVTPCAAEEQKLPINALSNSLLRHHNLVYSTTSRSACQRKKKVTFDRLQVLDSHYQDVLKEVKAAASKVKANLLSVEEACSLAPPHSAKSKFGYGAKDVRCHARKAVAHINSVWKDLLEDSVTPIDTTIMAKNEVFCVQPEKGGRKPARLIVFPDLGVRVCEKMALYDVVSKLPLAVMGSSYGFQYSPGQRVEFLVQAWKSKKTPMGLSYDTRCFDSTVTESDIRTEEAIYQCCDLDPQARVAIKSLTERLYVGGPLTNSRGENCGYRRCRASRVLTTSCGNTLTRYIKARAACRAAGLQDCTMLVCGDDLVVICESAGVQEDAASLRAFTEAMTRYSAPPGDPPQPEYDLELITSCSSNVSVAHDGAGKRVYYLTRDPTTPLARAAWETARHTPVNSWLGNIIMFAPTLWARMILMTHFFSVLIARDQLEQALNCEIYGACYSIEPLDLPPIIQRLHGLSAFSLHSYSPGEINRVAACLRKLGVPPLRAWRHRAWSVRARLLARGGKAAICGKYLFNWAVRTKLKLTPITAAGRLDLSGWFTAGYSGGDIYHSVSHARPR
T2 sequence (P26663 2420-2989, stated change not applied): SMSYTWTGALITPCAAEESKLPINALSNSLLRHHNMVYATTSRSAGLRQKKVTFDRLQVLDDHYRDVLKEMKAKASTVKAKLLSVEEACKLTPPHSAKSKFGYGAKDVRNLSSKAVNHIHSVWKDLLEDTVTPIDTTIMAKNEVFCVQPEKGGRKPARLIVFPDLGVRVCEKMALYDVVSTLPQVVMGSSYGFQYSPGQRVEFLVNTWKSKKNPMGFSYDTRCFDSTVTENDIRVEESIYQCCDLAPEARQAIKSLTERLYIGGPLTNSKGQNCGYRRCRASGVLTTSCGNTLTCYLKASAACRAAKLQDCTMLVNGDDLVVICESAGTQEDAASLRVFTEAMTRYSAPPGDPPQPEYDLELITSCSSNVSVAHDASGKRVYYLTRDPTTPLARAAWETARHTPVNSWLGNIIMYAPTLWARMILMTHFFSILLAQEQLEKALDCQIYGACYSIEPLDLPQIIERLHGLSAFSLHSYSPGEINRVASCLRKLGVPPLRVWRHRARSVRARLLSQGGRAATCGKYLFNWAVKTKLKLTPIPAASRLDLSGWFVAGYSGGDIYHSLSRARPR

Broadly, the EC50 is the midpoint of the concentration-response curve. The IC50 is the point on the concentration scale where inhibition reaches its midpoint. Low readings indicate greater potency in that assay, high ones weaker potency in that assay. For `CC(C)(C)c1cc(-n2ccc(=O)[nH]c2=O)cc(C(=O)Nc2ccc(NS(C)(=O)=O)cc2)c1O` [IB-L3-1.2, 3-tert-butyl-5-(2,4-dioxo-3,4-dihydropyrimidin-1(2H)-yl)-2-hydroxy-N-(4-(methylsulfonamide)phenyl)benzamide], the figures for the concentration giving a half-maximal response (EC50) in assay [1] and in assay [2] were 100 to 1000 nM and 10 to 100 nM, respectively. The IC50 in assay [3] was 10 to 100 nM; in assay [4] it was < 10 nM.

On to `CC(C)(C)c1cc(N2CCC(=O)NC2=O)cc(C(=O)Nc2ccccc2S(N)(=O)=O)c1O` [IA-L3-1.22, 3-tert-butyl-5-(2,4-dioxotetrahydropyrimidin-1(2H)-yl)-2-hydroxy-N-(2-sulfamoylphenyl)benzamide], for which the half-maximal effective concentration (EC50) in assay [1] and in assay [2] was > 1000 nM in each case. Moreover, the IC50 in assay [3] was 100 to 1000 nM; in assay [4] it was 10 to 100 nM.

`COc1cc(NS(C)(=O)=O)ccc1NC(=O)c1cc(N2CCC(=O)NC2=O)cc(C(C)(C)C)c1O` [IA-L3-1.119, 3-tert-butyl-5-(2,4-dioxotetrahydropyrimidin-1(2H)-yl)-2-hydroxy-N-(2-methoxy-4-(methylsulfonamido)phenyl)benzamide]: the values for the half-maximal effective concentration (EC50) in assay [1] and in assay [2] were 100 to 1000 nM and 10 to 100 nM, respectively. In addition, the IC50 in assay [3] is 10 to 100 nM; in assay [4], < 10 nM.

For `COc1c(-c2ccc(/C=N/NS(C)(=O)=O)c(F)c2)cc(N2CCC(=O)NC2=O)cc1C(C)(C)C` [IA-L0-1.4, (E)-N′-((3′-tert-butyl-5′-(2,4-dioxotetrahydropyrimidin-1(2H)-yl)-3-fluoro-2′-methoxybiphenyl-4-yl)methylene)methanesulfonohydrazide], the EC50 in assay [1] lay in the range of 100 to 1000 nM; in assay [2], 10 to 100 nM. Further, the IC50 in assay [3] and in assay [4] was 10 to 100 nM each time.

Turning to `COc1cc(NS(C)(=O)=O)ccc1C#Cc1cc(N2CCC(=O)NC2=O)cc(C(C)(C)C)c1OC` [IA-L2-1.16, N-(4-((3-tert-butyl-5-(2,4-dioxotetrahydropyrimidin-1(2H)-yl)-2-methoxyphenyl)ethynyl)-3-methoxyphenyl)methanesulfonamide], the concentration for a half-maximal effect (EC50) in assay [1] was 10 to 100 nM; in assay [2], < 10 nM. For the same compound, the IC50 in assay [3] is < 10 nM; in assay [4], 10 to 100 nM.

As to `COc1ccc(CN(c2ccc(NC(=O)c3cc(N4CCC(=O)NC4=O)cc(C(C)(C)C)c3OC)cc2)S(C)(=O)=O)cc1` [IA-L3-1.67, 3-tert-butyl-5-(2,4-dioxotetrahydropyrimidin-1(2H)-yl)-2-methoxy-N-(4-(N-(4-methoxy-benzyl)methylsulfonamido)phenyl)benzamide], the EC50 in assay [1] is > 1000 nM; in assay [2], 100 to 1000 nM. Besides, the IC50 in assay [3] and in assay [4] was > 1000 nM each time.

Turning to `COc1c(C#Cc2ccc(NS(C)(=O)=O)cc2C(=O)N2CCOCC2)cc(-n2ccc(=O)[nH]c2=O)cc1C(C)(C)C` [IB-L2-1.11, N-(4-((3-tert-butyl-5-(2,4-dioxo-3,4-dihydropyrimidin-1(2H)-yl)-2-methoxyphenyl)ethynyl)-3-(morpholine-4-carbonyl)phenyl)methanesulfonamide], the EC50 in assay [1] was 100 to 1000 nM; in assay [2], 10 to 100 nM. For the same compound, the 50% inhibitory concentration (IC50) in assay [3] and in assay [4] was 10 to 100 nM in each case.

Take `COc1c(C#Cc2ccc(NS(C)(=O)=O)cc2)cc(N2CCC(=O)NC2=O)cc1C1CC1` [IA-L2-1.23, N-(4-((3-cyclopropyl-5-(2,4-dioxotetrahydropyrimidin-1(2H)-yl)-2-methoxyphenyl)ethynyl)phenyl)methanesulfonamide]: the concentration for a half-maximal effect (EC50) in assay [1] was > 1000 nM; in assay [2] it was 100 to 1000 nM. Moreover, the IC50 in assay [3] and in assay [4] was 100 to 1000 nM in each case.

Consider `COc1c(-c2ccc3c(c2)CCC3(F)CNS(C)(=O)=O)cc(-n2ccc(=O)[nH]c2=O)cc1C(C)(C)C` (centres unmarked) [IB-L0-2.12, N-((5-(3-tert-butyl-5-(2,4-dioxo-3,4-dihydropyrimidin-1(2H)-yl)-2-methoxyphenyl)-1-fluoro-2,3-dihydro-1H-inden-1-yl)methyl)methanesulfonamide], for which the EC50 was 10 to 100 nM in assay [1] and < 10 nM in assay [2]. The concentration for half-maximal inhibition (IC50) was < 10 nM in assay [3] and 10 to 100 nM in assay [4].

On to `CCc1cc(NS(C)(=O)=O)ccc1C#Cc1cc(N2CCC(=O)NC2=O)cc(C(C)(C)C)c1OC` [IA-L2-1.11, N-(4-((3-tert-butyl-5-(2,4-dioxotetrahydropyrimidin-1(2H)-yl)-2-methoxyphenyl)ethynyl)-3-ethylphenyl)methanesulfonamide], for which the 50% effective concentration (EC50) in assay [1] and in assay [2] was < 10 nM in each case. Besides, the results for the IC50 in assay [3] and in assay [4] were < 10 nM and 10 to 100 nM, respectively.

For the compound `COc1c(C#Cc2ccc(NS(C)(=O)=O)c(F)c2Cl)cc(N2CCC(=O)NC2=O)cc1C(C)(C)C` [IA-L2-1.21, N-(4-((3-tert-butyl-5-(2,4-dioxotetrahydropyrimidin-1(2H)-yl)-2-methoxyphenyl)ethynyl)-3-chloro-2-fluorophenyl)methanesulfonamide], the 50% effective concentration (EC50) in assay [1] was 10 to 100 nM; in assay [2] it was < 10 nM. Also, the concentration for half-maximal inhibition (IC50) was < 10 nM in assay [3] and 10 to 100 nM in assay [4].

Regarding `COc1c(C#Cc2ccc(NS(C)(=O)=O)cc2C(F)(F)F)cc(N2CCC(=O)NC2=O)cc1C(C)(C)C` [IA-L2-1.18, N-(4-((3-tert-butyl-5-(2,4-dioxotetrahydropyrimidin-1(2H)-yl)-2-methoxyphenyl)ethynyl)-3-(trifluoromethyl)phenyl)methanesulfonamide], the values for the concentration for a half-maximal effect (EC50) in assay [1] and in assay [2] were 10 to 100 nM and < 10 nM, respectively. Further, the 50% inhibitory concentration (IC50) in assay [3] and in assay [4] was < 10 nM each time.

For the compound `COc1c(-c2ccc3c(c2)CCC3(C)CNS(C)(=O)=O)cc(-n2ccc(=O)[nH]c2=O)cc1C(C)(C)C` (centres unmarked) [IB-L0-2.25, N-((5-(3-tert-butyl-5-(2,4-dioxo-3,4-dihydropyrimidin-1(2H)-yl)-2-methoxyphenyl)-1-methyl-2,3-dihydro-1H-inden-1-yl)methyl)methanesulfonamide], the EC50 in assay [1] lay in the range of 100 to 1000 nM; in assay [2] it was 10 to 100 nM. The IC50 in assay [3] and in assay [4] was 10 to 100 nM in each case.

For the compound `CC(C)(C)c1cc(N2CCC(=O)NC2=O)cc(C(=O)Nc2cccc(NS(C)(=O)=O)c2)c1O` [IA-L3-1.5, 3-tert-butyl-5-(2,4-dioxotetrahydropyrimidin-1(2H)-yl)-2-hydroxy-N-(3-(methylsulfonamido)phenyl)benzamide], the EC50 in assay [1] and in assay [2] was > 1000 nM in each case. In addition, the values for the IC50 in assay [3] and in assay [4] were 100 to 1000 nM and 10 to 100 nM, respectively.

Turning to `CC(C)(C)c1cc(N2CCC(=O)NC2=O)cc(C(=O)Nc2nccs2)c1O` [IA-L3-1.104, 3-tert-butyl-5-(2,4-dioxotetrahydropyrimidin-1(2H)-yl)-2-hydroxy-N-(thiazol-2-yl)benzamide], the half-maximal effective concentration (EC50) in assay [1] and in assay [2] was > 1000 nM each time. Besides, the 50% inhibitory concentration (IC50) in assay [3] is > 1000 nM; in assay [4] it was 100 to 1000 nM.

For the compound `CC(C)(C)c1cc(NC(=O)c2ccc(NS(C)(=O)=O)cc2)cc(N2CCC(=O)NC2=O)c1` [IA-L4-1.1, N-(3-tert-butyl-5-(2,4-dioxotetrahydropyrimidin-1(2H)-yl)phenyl)-4-(methylsulfonamido) benzamide], the concentration for a half-maximal effect (EC50) in assay [1] and in assay [2] was > 1000 nM in each case. Moreover, the IC50 in assay [3] and in assay [4] was 100 to 1000 nM throughout.

On to `COc1c(C#Cc2cc(F)c(NS(C)(=O)=O)cc2C)cc(N2CCC(=O)NC2=O)cc1C(C)(C)C` [IA-L2-1.20, N-(4-((3-tert-butyl-5-(2,4-dioxotetrahydropyrimidin-1(2H)-yl)-2-methoxyphenyl)ethynyl)-2-fluoro-5-methylphenyl)methanesulfonamide], for which the EC50 in assay [1] was 10 to 100 nM; in assay [2], < 10 nM. The IC50 is < 10 nM in assay [3] and 10 to 100 nM in assay [4].

`COc1c(C(=O)Nc2scc(CNS(C)(=O)=O)c2S(N)(=O)=O)cc(N2CCC(=O)NC2=O)cc1C(C)(C)C` [IA-L3-1.90, 3-tert-butyl-5-(2,4-dioxotetrahydropyrimidin-1(2H)-yl)-2-methoxy-N-(4-(methylsulfonamidemethyl)-3-sulfamoylthiophen-2-yl)benzamide]: the half-maximal effective concentration (EC50) in assay [1] is > 1000 nM; in assay [2], 100 to 1000 nM. Also, the 50% inhibitory concentration (IC50) in assay [3] and in assay [4] was 10 to 100 nM throughout.

Take `COc1c(-c2ccoc2)cc(-n2ccc(=O)[nH]c2=O)cc1-c1ccc2c(c1)CC=C2CNS(C)(=O)=O` [IB-L0-2.67, N-((6-(5-(2,4-dioxo-3,4-dihydropyrimidin-1(2H)-yl)-3-(furan-3-yl)-2-methoxyphenyl)-1H-inden-3-yl)methyl)methanesulfonamide]: the EC50 in assay [1] lay within 100 to 1000 nM; in assay [2], 10 to 100 nM. Besides, the concentration for half-maximal inhibition (IC50) in assay [3] and in assay [4] was 10 to 100 nM in each case.

For the compound `COc1c(NC(=O)c2ccc(NS(C)(=O)=O)cc2Cl)cc(N2CCC(=O)NC2=O)cc1C(C)(C)C` [IA-L4-1.12, N-(3-tert-butyl-5-(2,4-dioxotetrahydropyrimidin-1(2H)-yl)-2-methoxyphenyl)-2-chloro-4-(methylsulfonamido)benzamide], the EC50 in assay [1] and in assay [2] was 100 to 1000 nM throughout. Moreover, the 50% inhibitory concentration (IC50) in assay [3] and in assay [4] was 10 to 100 nM each time.
